How the values were obtained:
[1] = molecular target: T1, RecG with three-strand DNA junction (A40:B40:C19) (Thermotoga maritima, UniProt Q9WY48); experiment: Single turnover ATPase measurements with three-strand junction; assay type: biochemical
T1 construct: made in house
T1 sequence (Q9WY48 1-780): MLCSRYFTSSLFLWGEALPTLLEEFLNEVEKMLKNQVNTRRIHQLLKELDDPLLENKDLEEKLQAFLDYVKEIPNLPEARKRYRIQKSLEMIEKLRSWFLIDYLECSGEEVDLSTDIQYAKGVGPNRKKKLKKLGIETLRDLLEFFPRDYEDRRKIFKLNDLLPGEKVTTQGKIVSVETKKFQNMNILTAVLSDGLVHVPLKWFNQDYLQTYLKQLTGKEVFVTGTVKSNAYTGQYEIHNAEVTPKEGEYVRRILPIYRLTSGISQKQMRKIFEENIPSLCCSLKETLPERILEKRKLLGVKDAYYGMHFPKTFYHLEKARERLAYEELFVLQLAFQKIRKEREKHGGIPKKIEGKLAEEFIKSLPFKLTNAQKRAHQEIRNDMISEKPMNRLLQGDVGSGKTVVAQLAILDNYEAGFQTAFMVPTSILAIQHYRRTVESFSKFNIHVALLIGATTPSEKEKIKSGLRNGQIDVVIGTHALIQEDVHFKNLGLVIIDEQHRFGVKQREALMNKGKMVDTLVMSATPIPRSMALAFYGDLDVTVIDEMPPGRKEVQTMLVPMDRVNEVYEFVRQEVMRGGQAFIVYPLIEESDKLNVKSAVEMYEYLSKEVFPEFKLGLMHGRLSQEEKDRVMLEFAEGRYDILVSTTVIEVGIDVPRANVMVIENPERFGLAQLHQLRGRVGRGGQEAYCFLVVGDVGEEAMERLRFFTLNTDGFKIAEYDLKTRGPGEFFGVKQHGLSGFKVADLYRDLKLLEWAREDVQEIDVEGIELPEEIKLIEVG
Method: Therefore, mantATP binding, quench-flow and phosphate measurements were carried out using with sub-stoichiometric mantATP, but with a non-complementary three-strand DNA junction (A40:B40:C19) to form a lagging strand duplex (as defined in Figure 1A). With excess mantATP, the duplex arm of this junction was unwound by the helicase, leaving RecG bound to the two-strand junction with the third strand displaced. With sub-stoichiometric mantATP, there was only a single turnover, so only partial unwinding of this DNA substrate occurred. The kinetics (Figure S2) were similar to those with the two-strand junction with mantATP binding at 4.2 (±0.4) s^−1, hydrolysis at 0.39 (±0.1) s^−1 and fast Pi release.
Supplementary file pone.0038270.s002.tif: Figure S2 Kinetic measurements of mantATP with excess of RecG and a Three-strand DNA Junction. The concentrations for all experiments were 0.5 µM mantATP, 2.5 µM RecG, 5 µM DNA Junction (A40:B40:C19) and 10 µM MDCC-PBP (for Pi measurement). All measurements were carried out under the conditions of Figure 4. Time course of mant fluorescence (continuous line), mantADP formation (circles) and Pi release (dashed line). […] (TIF) Click here for additional data file.

[2] = molecular target: T2, RecG⋅DNA(A40:B40) (Thermotoga maritima, UniProt Q9WY48); experiment: Stopped-flow mant fluorescence: mant nucleotide binding to RecG⋅DNA, pseudo-first-order; conditions: 20°C
T2 construct: made in house
T2 sequence (Q9WY48 1-780): T1 sequence (Q9WY48 1-780)
Method: MantATP binding to RecG⋅DNA(A40:B40) was measured under pseudo-first-order conditions, that is mantATP in large excess over the protein. Using the stopped-flow apparatus, several concentrations of mantATP were rapidly mixed with RecG⋅DNA and fluorescence followed with time. Each trace was fitted by a single exponential (Figure 3A) and the concentration dependence of the observed rate constants were fit well by a hyperbola (Figure 3B). […] As mantATP is also hydrolyzed, the rate of the forward reaction needs to be included, in this case limited by the cleavage step 2, as described later. The fit gives 1/K 1a as 24 (±4) µM, k +1b + k −1b + k +2 as 26.1 (±1.8) s^−1 and the intercept gives k −1b + k +2 as <1 s^−1. Given that k +2 is 0.2 s^–1 (see below), k −1b is <0.8 s^−1. Potentially, an alternative explanation for such a hyperbolic relationship could be preferential binding of either the 2′- or 3′-isomer of mantATP and then isomerization of the non-favored isomer. However, the observed rates in these measurements were several orders of magnitude faster than the likely isomerization rate. In order to assess whether the two isomers of mantATP and their interconversion are factors in any fluorescence traces for mantATP, an equivalent measurement was made using 3′-mant-2′-deoxyATP.
Figure 3 MantATP binding to RecG⋅DNA. MantATP at the micromolar concentrations shown was mixed in the stopped flow apparatus with 0.5 µM RecG and 2.5 µM DNA Junction (A40:B40) at 20°C in the buffer described in materials and methods. Individual traces (offset from each other) were fitted to single exponentials and the dependence of the rate constants on concentration was then fitted by a hyperbola. The points shown are averages of at least 3 measurements. The fit gives 1/K 1a as 24 (±4) µM and k +1b + k− 1b + k +2 as 26.1 (±1.8) s^−1 and the intercept was <1 s^–1 (Scheme in Figure 2B).
MantADP binding to RecG⋅DNA complex was measured under pseudo-first order conditions by stopped-flow fluorescence.
Figure 5 MantADP binding kinetics to RecG⋅DNA. MantADP at various concentrations was mixed in the stopped flow apparatus with 0.5 µM RecG and 2.5 µM DNA (A40:B40) under the conditions of Figure 4. Traces (not shown) were fitted by single exponentials. The rate constants are shown as a function of concentration and the best linear fit, gives a slope of 1.1 (±0.4) µM^−1s^−1 and an intercept of <1 s^−1.
Stopped-flow experiments were performed in a HiTech SF61DX2 apparatus (TgK Scientific Ltd, Bradford-on-Avon, UK) with a mercury-xenon light source and HiTech KinetAsyst 3 or Kinetic Studio 1 software. For MDCC-PBP fluorescence, the excitation wavelength used was 436 nm and a 455 nm cut-off filter (Schott glass) used to collect emitted light. The signal was calibrated using known concentrations of Pi. The solutions contained the Pi mop, to minimize phosphate contamination and comprising 0.01 unit ml^−1 bacterial purine nucleoside phosphorylase and 200 µM 7-methylguanosine. For mant fluorescence, 366 nm was used to excite and a 400 nm cut-off filter (Schott glass) used to collect light. Measurements of Cy3 fluorescence used 547 nm excitation and a 570 nm cut-off filter. In experiments described, the quoted concentrations are those in the mixing chamber, except where stated. Data were fitted to theoretical curves using the HiTech software or Grafit.

[3] = three-strand junction A40:B40:C19, sub-stoichiometric mantATP

CNc1ccccc1C(=O)O[C@H]1[C@@H](O)[C@H](n2cnc3c(N)ncnc32)O[C@@H]1COP(=O)(O)OP(=O)(O)OP(=O)(O)O [mantATP, 2′(3′)-O-(N-methylanthraniloyl)ATP]
Pi release ([1]; three-strand junction A40:B40:C19, result in words): fast
hydrolysis rate [1, 3]: 0.39 (±0.1) s^−1
mantATP binding rate [1, 3]: 4.2 (±0.4) s^−1
k +1b [2]: 25.1 s⁻¹
k −1b [2]: <0.8 s⁻¹
k −4 (mantADP second order binding rate constant, slope) ([2]; linear fit): 1.1e+06 M⁻¹ s⁻¹
intercept, k −1b + k +2 ([2]; hyperbolic fit): < 1 s⁻¹
k +1b + k −1b + k +2 ([2]; hyperbolic fit): 26.1 (±1.8) s^−1
